US20240208901A1, “Deuterated 3,3'-Diselenodipropionic Acid (DSePA) and Its Use as an Anticancer or Radioprotective Agent” (Secretary, Department of Atomic Energy, priority 2022, published 2024)

System: H1975 cells
Experiment: MTT assay, anti-proliferative effect in H1975 cells
Assay type: cell-based, human
Details: Homo sapiens, NCI-H1975, 48 h treatment, read-out: IC50 to inhibit cell proliferation
Procedure: Therefore, D-DSePA was compared with un-deuterated DSePA for its anticancer activity in A549, H1975 and H3122 cell lines which are representative of NSCLC. For this, above cells were treated with the varying concentrations (0.1-100 μM) of DSePA/D-DSePA for 48 h and the cell viability was determined by MTT assay (FIG. 9A-C). The plot of percent (%) cytotoxicity (100-% viability) versus the concentration of DSePA/D-DSePA was used to estimate the half maximum concentration (IC50) of above compounds to inhibit the proliferation of cells. […] Employing these values, the therapeutic index (IC50 in normal lung cell/IC50 in lung cancer cell) of DSePA and D-DSePA in different pairs of normal versus cancerous cells (viz., A549/WI-38, A549/WI-26 VA4, H1975/WI-38, H1975/WI-26 VA4, H3122/WI-38 and H3122/WI-26 VA4) was calculated (Table-3). […]
MTT Assay—To evaluate the anti-proliferative effect of D-DScPA and DScPA, Cells (˜5×10^3) suspended in 100 μl of complete culture medium were seeded in each well of 96 well plates. […] The percentage (%) cytotoxicity was calculated from the decrease in absorbance at 570 nm of treated groups as compared to that of control group. […] The therapeutic index was calculated by normalizing the IC50 concentration of D-DSePA/DSePA in non-cancerous cells to that in cancerous cells.

Q: `O=C(O)CC[Se][Se]CCC(=O)O` [DSePA, 3,3′-diselenodipropionic acid] was tested. Which IC50 did it give?
A: 10.6 ± 1.1 µM
